In article PMC12172042, “Metabolic Activation versus Masked Prodrugs: Bisubstrate Mimic Inhibitors of CoaBC’s PPCS Activity in Mycobacterium tuberculosis and Staphylococcus aureus” (ACS Infectious Diseases, 2025):

How the values were obtained:
[1] = target: T1, SaCoaBC (Staphylococcus aureus, UniProt Q2G268); experiment: coupled pyrophosphate assay with Morrison tight-binding fit; formed in situ from P-CJ and CTP; CD melting shift ~[…] °C; type: biochemical
T1 construct: gene coaBC

[2] = target: T2, MtCoaBC (Mycobacterium tuberculosis, UniProt P9WNZ1); experiment: coupled pyrophosphate assay with Morrison tight-binding fit; formed in situ from P-CJ and CTP; CD melting shift […] °C; type: biochemical
T2 construct: gene coaBC
T2 sequence (P9WNZ1 whole entry): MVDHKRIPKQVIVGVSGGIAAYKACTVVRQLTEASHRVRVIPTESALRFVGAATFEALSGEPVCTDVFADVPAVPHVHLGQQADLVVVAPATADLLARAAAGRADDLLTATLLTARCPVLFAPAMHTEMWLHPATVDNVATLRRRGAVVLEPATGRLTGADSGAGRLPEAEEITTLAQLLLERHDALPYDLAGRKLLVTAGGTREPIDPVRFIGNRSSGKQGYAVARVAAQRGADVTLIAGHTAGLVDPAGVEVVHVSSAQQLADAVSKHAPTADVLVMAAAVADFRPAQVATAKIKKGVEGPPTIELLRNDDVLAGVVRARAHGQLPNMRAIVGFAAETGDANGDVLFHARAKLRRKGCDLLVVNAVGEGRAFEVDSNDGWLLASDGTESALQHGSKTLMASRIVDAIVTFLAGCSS

[3] = tested on: CC(C)(COP(=O)(O)O)[C@@H](O)C(=O)NCCC(=O)O; experiment: purified protein; conditions: CTP (MgCTP)

T1 sequence (Q2G268 entry or part of it): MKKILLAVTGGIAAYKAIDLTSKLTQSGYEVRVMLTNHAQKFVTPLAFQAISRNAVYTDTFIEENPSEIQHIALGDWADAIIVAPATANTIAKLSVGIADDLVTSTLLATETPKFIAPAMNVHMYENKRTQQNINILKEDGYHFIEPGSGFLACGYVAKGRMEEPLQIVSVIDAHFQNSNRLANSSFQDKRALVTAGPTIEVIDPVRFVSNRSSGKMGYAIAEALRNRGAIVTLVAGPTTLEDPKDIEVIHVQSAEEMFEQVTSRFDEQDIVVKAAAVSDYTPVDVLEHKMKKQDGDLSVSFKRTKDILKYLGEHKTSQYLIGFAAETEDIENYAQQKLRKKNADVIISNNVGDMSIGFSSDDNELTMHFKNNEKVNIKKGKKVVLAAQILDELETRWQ

Row | Compound | Ki [1] | Ki [2] | Km [3]
1 | CC(C)(COP(=O)(O)O)[C@@H](O)C(=O)N/C=C/C(=O)OP(=O)(O)OC[C@H]1O[C@@H](n2ccc(N)nc2=O)[C@H](O)[C@@H]1O [compound 11, P-CJ-CMP] | 32.3 nM | 58.7 nM | 
2 | MtCoaBC (Mycobacterium tuberculosis H37Rv) |  |  | 33.2 ± 4.2 µM
